Measurements reported in EP1285918A1, “C7 Ester substituted taxanes as antitumor agents” (Florida State University Research Foundation, Inc., priority 2001, dated 2003).
Where two headings read alike, the source gives them in different places.

Columns and labels:
[1] = system: DU 145 Human Prostate Carcinoma Xenografts; conditions: DU145; for Mean Score: tumor score 1 to 10, group mean
Experimental: (§1) Other antitumor compounds were similarly formulated. […] The dosing volume was 0.3 ml per 20 g mouse.
Male NCr-nude mice (implanted subcutaneously with 1 mm^3 DU145 prostate carcinoma fragments in the flank) were sorted into treatment groups of five mice each. […] Dosing was initiated on Day 1. The antitumor compounds were given i.v. at an estimated maximum tolerated dose (MTD) appropriate for each agent on a qd x 1 schedule (single administration of compound). […] The vehicle was administered i.v. to control mice in Group 1 on the qd x 1 schedule. The study was terminated on Day 91. Treatment groups are detailed in Table 5.
(§2) The mean days of survival is the number of days after which a neoplasm reached a size of 1.5 g and the animal was euthanized. A complete response is obtained if the tumor is not palpable at the end of the study. A partial response is obtained if the tumor shrinks to a size smaller than its size on Day 1 of the study. […]

[2] = system: A375 Human Melanoma Xenografts; conditions: A375; for Mean Score: tumor score 1 to 10, group mean
Experimental: as §1
Female NCr-nude mice (implanted subcutaneously with 1 mm^3 A375 melanoma in the flank) were sorted into treatment groups of six mice each, except for the Taxotere group having seven mice each. […] Dosing was initiated on Day 1. The antitumor compounds were given i.v. at an estimated maximum tolerated dose (MTD) appropriate for each agent on a qd x 1 schedule (single administration of compound). […] Taxotere was given i.v. on a qd x 1 schedule at a dose of 70 mg/kg. The vehicle was administered i.v. to control mice in Group 1 on the qd x 1 schedule. Treatment groups are detailed in Table 9. The study was terminated on Day 60.
as §2, with “The results are summarized in Table 10 and include mean days of survival (MDS), number of toxic deaths, number of survivors, number of complete or partial responses, and number with stable disease. The” for “The”, “tumor” for “neoplasm”, “2.0” for “1.5”

[3] = system: Panc-1 Human Pancreatic Carcinoma Xenografts
Experimental: (§3) Other antitumor compounds were similarly formulated. […] The dosing volume was 0.3 mL per 20 g mouse.
Female NCr-nude mice (6-8 weeks of age, implanted subcutaneously with 1 mm^3 Panc-1 pancreatic carcinoma fragments in the flank) were sorted into treatment groups of six mice each. […] Dosing was initiated on Day 1. The antitumor compounds were given i.v. at an estimated maximum tolerated dose (MTD) appropriate for each agent on a qd x 1 schedule (single administration of compound). […] Taxotere was given i.v. at a dose of 70 mg/kg on a qd x 1 schedule. The vehicle was given i.v. to control mice in Group 1 in each test on Day 1 (qd x 1) schedule. Treatment groups are detailed in Table 12. The study was terminated on Day 63.
The mean days of survival is the number of days after which a neoplasm reached a size of 1.5 g and the animal was euthanized. A complete response is obtained if the tumor is not palpable at the end of the study. A partial response is obtained if the tumor shrinks to a size smaller than its size on Day 1 of the study.

[4] = system: VM46 Human Colon Carcinoma Xenografts; conditions: for MDS (n): days until tumor reached 1.5 g
Experimental: as §3
Female NCr-nude mice (6-8 weeks of age, implanted subcutaneously with 1 mm^3 VM46 colon carcinoma fragments in the flank) were sorted into treatment groups of six mice each. […] Dosing was initiated on Day 1. The antitumor compounds were given i.v. at an estimated maximum tolerated dose (MTD) appropriate for each agent on a qd x 1 schedule (single administration of compound). […] Taxotere was given i.v. at a dose of 70 mg/kg on a qd x 1 schedule. The vehicle was given i.v. to control mice in Group 1 in each test on Day 1 (qd x 1) schedule. Treatment groups are detailed in Table 13. The VM46 study ended on Day 64.
as §2, with “The results are summarized in table 14 and include mean days of survival (MDS), number of toxic deaths, number of survivors, number of complete or partial responses, and number with stable disease. The” for “The”

[5] = Taxol i.p. 18 mg/kg qd x 5, 5 mice, Day 91
[6] = i.v. qd x 1 (mg/kg: Taxol 24, 1351 107.6, 1393 72.6, 1401 107.6, 1418 107.6, 1424 195.1), 5 mice/group, Day 91
[7] = i.v. qd x 1 (mg/kg: Taxol 24, 1351 107.6, 1393 72.6, 1401 107.6, 1418 107.6, 1424 195.1)
[8] = Taxol i.p. 18 mg/kg qd x 5, 6 mice, Day 60
[9] = i.v. qd x 1 (mg/kg: Taxol 24, 1351 107.6, 1393 72.6, 1401 107.6, 1418 107.6, 1424 195.1, Taxotere 70), Day 60
[10] = i.v. qd x 1 (mg/kg: Taxol 24, 1351 107.6, 1393 72.6, 1401 107.6, 1418 107.6, 1424 195.1, Taxotere 70)
[11] = 15 mg/kg i.p. qd x 5, 6 mice/group, study end Day 63
[12] = 24 mg/kg i.v. qd x 1 as two split doses, 6 mice/group, study end Day 63
[13] = 15 mg/kg i.p. qd x 5, 6 mice/group, study end Day 64
[14] = 24 mg/kg i.v. qd x 1, 6 mice/group, study end Day 64
[15] = VM46, Taxol 24 mg/kg i.v. qd x 1, 6 mice, Day 64
[16] = Panc-1, i.v. qd x 1 (mg/kg: 1393 72.6, 1418 107.6), 6 mice/group, Day 63
[17] = 72.6 mg/kg i.v. qd x 1, 6 mice/group, study end Day 64

Structure (SMILES): CC(=O)O[C@H]1C(=O)[C@@]2(C)[C@H]([C@H](OC(=O)c3ccccc3)[C@]3(O)C[C@H](OC(=O)[C@H](O)[C@@H](NC(=O)c4ccccc4)c4ccccc4)C(C)=C1C3(C)C)[C@]1(OC(C)=O)CO[C@@H]1C[C@@H]2O [Taxol, paclitaxel, reference compound]
- increase in survival compared to Group 1 controls ([1]; Taxol 24 mg/kg i.v. qd x 1): 9%
- toxicity ([1]; Taxol i.p. 18 mg/kg qd x 5): highly toxic
- weight loss ([1]; Taxol i.p. 18 mg/kg qd x 5): more than 20%
- Complete Response [1, 5]: 0
- Partial Response [1, 5]: 0
- Stable Disease [1, 5]: 0
- Survivors [1, 5]: 0
- Mean Score ([1]; Taxol i.p. 18 mg/kg qd x 5): 0 ± 0
- MDS (n) ([1]; i.v. qd x 1 (mg/kg: Taxol 24, 1351 107.6, 1393 72.6, 1401 107.6, 1418 107.6, 1424 195.1), 5 mice/group, 1.5 g cut-off, Day 91): 37.4 ± 8.9 (3) days
- Complete Response [1, 6]: 0
- Partial Response [1, 6]: 0
- Stable Disease [1, 6]: 1
- Survivors [1, 6]: 1
- Mean Score [1, 7]: 2 ± 1
- toxicity ([2]; Taxol i.p. 18 mg/kg qd x 5): highly toxic
- Complete Response [2, 8]: 0
- Partial Response [2, 8]: 0
- Stable Disease [2, 8]: 0
- Survivors [2, 8]: 0
- Mean Score ([2]; Taxol i.p. 18 mg/kg qd x 5): 0±0
- MDS (n) ([2]; i.v. qd x 1 (mg/kg: Taxol 24, 1351 107.6, 1393 72.6, 1401 107.6, 1418 107.6, 1424 195.1, Taxotere 70), 2.0 g cut-off, Day 60): 18.1 ± 0.6 (4) days
- Complete Response [2, 9]: 0
- Partial Response [2, 9]: 0
- Stable Disease [2, 9]: 0
- Survivors [2, 9]: 0
- Toxic Deaths [2, 9]: 2
- Mean Score [2, 10]: 0.8 ± 0.3
- survival extension compared to Group 1 controls ([2]; i.v. qd x 1 (mg/kg: Taxol 24, 1393 72.6, 1418 107.6, Taxotere 70)): 26%
- Complete Response [3, 11]: 0
- Mean Score [3, 11]: 1.2 ± 1.2
- Partial Response [3, 11]: 1
- Stable Disease [3, 11]: 0
- Survivors [3, 11]: 1
- Toxic Deaths [3, 11]: 4
- Complete Response [3, 12]: 0
- Mean Score [3, 12]: 2.2 ± 0.8
- Partial Response [3, 12]: 0
- Stable Disease [3, 12]: 1
- Survivors [3, 12]: 1
- Toxic Deaths [3, 12]: 1
- MDS (n) ([3]; 24 mg/kg i.v. qd x 1 as two split doses, 6 mice/group, study end Day 63, days until tumor reached 1.5 g): 34.7 ± 3.4 days
- Toxic Deaths ([3]; Panc-1, Taxol i.p. 15 mg/kg qd x 5, 6 mice): four
- Toxic Deaths ([3]; Panc-1, i.v. qd x 1 (mg/kg: Taxol 24, 1351 75.32, 1393 72.6, 1401 107.6, 1418 107.6, 1424 195.1), 6 mice/group): One
- MDS ([3]; Panc-1, i.v. qd x 1 (mg/kg: Taxol 24, 1351 75.32, 1393 72.6, 1401 107.6, 1418 107.6, 1424 195.1), 6 mice/group, 1.5 g cut-off, Day 63): 34.7 days
- Stable Disease ([3]; Panc-1, i.v. qd x 1 (mg/kg: Taxol 24, 1393 72.6, 1418 107.6), 6 mice/group, Day 63): one
- Complete Response [4, 13]: 0
- Mean Score [4, 13]: 1.8 ± 1.3
- Partial Response [4, 13]: 1
- Stable Disease [4, 13]: 0
- Survivors [4, 13]: 1
- Toxic Deaths [4, 13]: 3
- MDS (n) [4, 13]: 36.1 ± 12.2 (2) days
- Complete Response [4, 14]: 0
- Mean Score [4, 14]: 3.8 ± 1.4
- Partial Response [4, 14]: 1
- Stable Disease [4, 14]: 1
- Survivors [4, 14]: 2
- Toxic Deaths [4, 14]: 0
- Partial Response [4, 15]: one
- Stable Disease [4, 15]: one
- toxicity ([4]; VM46, Taxol i.p. 15 mg/kg qd x 5): excessively toxic
- mortalities ([4]; VM46, Taxol i.p. 15 mg/kg qd x 5, 6 mice): three

Structure (SMILES): CCC(=O)O[C@H]1C[C@H]2OC[C@@]2(OC(C)=O)[C@H]2[C@H](OC(=O)c3ccccc3)[C@]3(O)C[C@H](OC(=O)[C@H](O)[C@@H](NC(=O)OC(C)(C)C)c4ccco4)C(C)=C([C@@H](O)C(=O)[C@]12C)C3(C)C [Compound 1393, 3'-Desphenyl-3'-(2-furyl)-7-propionyl taxotere]
- complete response rate ([1]; 1393 72.6 mg/kg i.v. qd x 1): 60%
- Complete Response [1, 6]: 3
- Partial Response [1, 6]: 1
- Stable Disease [1, 6]: 0
- Mean Score [1, 7]: 8 ± 1.5
- Complete Response [2, 9]: 0
- Partial Response [2, 9]: 0
- Stable Disease [2, 9]: 0
- Toxic Deaths [2, 9]: 0
- Mean Score [2, 10]: 3±0
- Complete Response [3, 16]: 1
- Partial Responses [3, 16]: 4
- Toxic Deaths ([3]; i.v. qd x 1 at estimated MTD, 6 mice/group, study end Day 63): 0
- Complete Response [4, 17]: 1
- Mean Score [4, 17]: 3.2 ± 1.4
- Partial Response [4, 17]: 0
- Stable Disease [4, 17]: 0
- Toxic Deaths [4, 17]: 0
- MDS (n) [4, 17]: 46.2 ± 6.1 (5) days
